From patent publication US12298308B2, “Neoadjuvant chemotherapy induces breast cancer metastasis through a TMEM-mediated mechanism” (Albert Einstein College of Medicine, priority 2017, dated 2025)

What was measured:
TMEM = test: Extravascular Dextran-TMR in fixed tumor sections (multichannel IF); format: in vivo, mouse
Procedure: In a second independent validation experiment, a group of vehicle- or paclitaxel-treated mice received an i.v injection of Dextran-TMR for 1 hour and then sacrificed and evaluated for vascular permeability in fixed tumor sections (FIG. 2A). Multichannel IF staining included endomucin as a blood vessel exclusion mask and a specific anti-TMR antibody for assessing dextran leakage. A corresponding TMEM IHC staining section was co-aligned to evaluate the presence/absence of TMEM in each vascular profile that presented with vascular leakage. […] For quantification purposes, ˜20-30 vascular profiles were selected for each mouse, based on tissue size, degree of vascularization and quality of endomucin staining. […]
Paclitaxel Increases Metastatic Dissemination of Breast Tumors—To assess if paclitaxel treatment promotes tumor cell dissemination and metastatic incidence, we first quantified and compared incidence and frequency of bursting in mice treated with vehicle or paclitaxel, using IVI (FIGS. 3A-C). […] The same conclusions were reached when frequency of bursting was normalized to the number of TMEM sites, as measured in each field. […] In addition to IVI, extravascular dextran area was quantified and compared as % normalized to the blood vessel area in fixed tumors of mice treated with either vehicle or paclitaxel, using multichannel IF. […]

Mena^INV [1] = test: Mena^INV protein expression by immunofluorescence in mouse tumors; format: in vivo; details: PyMT-spontaneous and HT17-xenograft models; p<0.0001
Description: To test this hypothesis, qRT-PCR analysis was first performed for total Mena (panMena), Mena11a and Mena^INV on formalin-fixed paraffin-embedded (FFPE) tumors from all mouse models. […] As shown in the specific Mena^INV IF, the pattern of Mena^INV expression in PyMT mice was heterogeneous (FIG. 4F), consistent with previous observations (40). […] In addition, there was an inverse correlation for the anti-metastatic Mena11a (p<0.01, […]).
(§1) Immunofluorescence. Slides were deparaffinized by melting at 60° C. in an oven equipped with a fan for 20 minutes, followed by 2× xylene treatment for 20 minutes. Slides were rehydrated and antigen retrieval was done in 1 mM EDTA (pH 8.0) or 1× citrate buffer (pH 6.0) (Diagnostic BioSystems) at 97° C. for 20 minutes in a conventional steamer. Endogenous peroxidase was blocked by using 0.3% hydrogen peroxide in water, followed by incubation of slides in a blocking buffer solution (10% FBS, 1% BSA, 0.0025% fish skin gelatin in 0.05% PBST) for 60 minutes at room temperature. […]

Mena^INV [2] = test: Mena^INV expression before and after NAC or paclitaxel in breast cancer patients; format: in vivo, human; details: qRT-PCR in FNA biopsies before and one week after second dose of weekly paclitaxel; n=5
Description: To further substantiate the translational importance of our preclinical data from PyMT and PDX mice receiving neoadjuvant paclitaxel into human breast cancer patients, we compared Mena^INV expression levels in Pre- and Post-NAC samples. […] Additionally, we analyzed Mena^INV expression by qRT-PCR in fine needle aspiration (FNA) biopsies taken before and one week after the second dose of weekly paclitaxel in an independent small cohort of patients (n=5).
as §1

MDA-MB-213 xenografts = details: paclitaxel-treated vs control MDA-MB-213 xenografts; cited from earlier work

CC(=O)O[C@H]1C(=O)[C@@]2(C)[C@H]([C@H](OC(=O)c3ccccc3)[C@]3(O)C[C@H](OC(=O)[C@H](O)[C@@H](NC(=O)c4ccccc4)c4ccccc4)C(C)=C1C3(C)C)[C@]1(OC(C)=O)CO[C@@H]1C[C@@H]2O [paclitaxel]
vascular profiles with extravascular dextran co-localized with at least 1 TMEM (TMEM; fixed tumor sections, Dextran-TMR i.v. for 1 hour): 96-98%
extravascular dextran area normalized to blood vessel area, fold vs vehicle-treated (TMEM; fixed tumors, p<0.05): 3 fold
Mena^INV expression at the protein level (Mena^INV [1]): increased expression
patients with increase of Mena^INV gene-expression (Mena^INV [2]): 4/5
Mena expression (MDA-MB-213 xenografts): significantly increased
Mena^INV expression (MDA-MB-213 xenografts): significantly increased
